# Test results reported in ChEMBL document CHEMBL1132031, “4-Oxospiro[benzopyran-2,4'-piperidines] as selective alpha 1a-adrenergic receptor antagonists” (Bioorg Med Chem Lett, 1999).
# Key:
# [1] = biological target: T1, Alpha-1D adrenergic receptor (Homo sapiens, UniProt P25100); test: Displacement of [125I]HEAT from human Alpha-1D adrenergic receptor expressed in HEK cells; format: cell-based, HEK293
# T1 sequence (P25100 whole entry): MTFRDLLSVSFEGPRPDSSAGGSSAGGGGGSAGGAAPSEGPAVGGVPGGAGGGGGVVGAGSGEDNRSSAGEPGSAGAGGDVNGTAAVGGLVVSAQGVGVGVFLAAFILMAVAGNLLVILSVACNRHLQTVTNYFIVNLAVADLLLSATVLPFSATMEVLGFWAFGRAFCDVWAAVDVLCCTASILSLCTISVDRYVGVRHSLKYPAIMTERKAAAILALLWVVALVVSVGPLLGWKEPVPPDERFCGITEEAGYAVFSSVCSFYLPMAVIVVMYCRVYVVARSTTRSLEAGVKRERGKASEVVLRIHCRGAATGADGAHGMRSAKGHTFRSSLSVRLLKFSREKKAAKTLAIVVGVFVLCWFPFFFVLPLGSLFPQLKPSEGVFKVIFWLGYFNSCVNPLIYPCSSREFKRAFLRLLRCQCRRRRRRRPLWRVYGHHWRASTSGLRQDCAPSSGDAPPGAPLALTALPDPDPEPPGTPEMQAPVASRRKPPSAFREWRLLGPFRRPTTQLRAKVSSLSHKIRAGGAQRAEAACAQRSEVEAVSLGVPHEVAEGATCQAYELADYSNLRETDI
# [2] = biological target: T2, Alpha-1A adrenergic receptor (Homo sapiens, UniProt P35348); test: Displacement of [125I]HEAT from human Alpha-1C adrenergic receptor expressed in CHO cells; format: cell-based
# T2 sequence (P35348 whole entry): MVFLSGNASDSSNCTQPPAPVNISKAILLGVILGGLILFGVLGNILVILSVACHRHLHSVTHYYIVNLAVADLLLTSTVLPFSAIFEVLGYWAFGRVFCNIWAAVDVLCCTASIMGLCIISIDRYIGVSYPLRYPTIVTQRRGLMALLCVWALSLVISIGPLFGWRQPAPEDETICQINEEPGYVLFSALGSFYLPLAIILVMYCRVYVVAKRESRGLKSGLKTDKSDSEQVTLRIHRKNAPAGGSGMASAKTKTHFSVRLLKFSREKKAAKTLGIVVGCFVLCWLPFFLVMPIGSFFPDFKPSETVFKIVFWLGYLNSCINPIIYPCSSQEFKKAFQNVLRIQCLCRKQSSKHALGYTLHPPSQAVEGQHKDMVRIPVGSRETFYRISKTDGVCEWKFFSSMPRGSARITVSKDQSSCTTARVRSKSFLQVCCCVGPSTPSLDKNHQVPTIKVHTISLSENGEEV
# [3] = biological target: T3, Alpha-1B adrenergic receptor (Homo sapiens, UniProt P35368); test: Displacement of [125I]HEAT from human Alpha-1B adrenergic receptor expressed in LM cells; format: cell-based
# T3 sequence (P35368 whole entry): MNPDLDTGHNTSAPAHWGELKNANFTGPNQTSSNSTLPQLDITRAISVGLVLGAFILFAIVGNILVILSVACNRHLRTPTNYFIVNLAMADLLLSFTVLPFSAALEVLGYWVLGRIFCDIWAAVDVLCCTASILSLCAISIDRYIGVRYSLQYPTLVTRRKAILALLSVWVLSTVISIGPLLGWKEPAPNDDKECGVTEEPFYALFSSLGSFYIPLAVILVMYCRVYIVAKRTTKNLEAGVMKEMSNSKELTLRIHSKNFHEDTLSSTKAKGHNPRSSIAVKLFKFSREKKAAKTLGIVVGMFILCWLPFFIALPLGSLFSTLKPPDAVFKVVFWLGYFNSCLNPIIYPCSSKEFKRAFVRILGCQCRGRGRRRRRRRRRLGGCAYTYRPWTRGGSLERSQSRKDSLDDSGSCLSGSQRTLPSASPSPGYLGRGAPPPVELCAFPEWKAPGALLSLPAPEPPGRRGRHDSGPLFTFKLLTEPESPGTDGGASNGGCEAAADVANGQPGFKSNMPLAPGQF
# Mustela putorius furo = species: Mustela putorius furo; test: In vitro concentration required to increase the effective refractory period (ERP) above baseline was evaluated using isolated ferret papillary muscle preparations; format: functional; details: Muscle tissue
# [4] = biological target: T4, Alpha-1A adrenergic receptor (Rattus norvegicus, UniProt P43140); test: Binding affinity against Alpha-1A adrenergic receptor in rat prostatic tissue
# T4 sequence (P43140 whole entry): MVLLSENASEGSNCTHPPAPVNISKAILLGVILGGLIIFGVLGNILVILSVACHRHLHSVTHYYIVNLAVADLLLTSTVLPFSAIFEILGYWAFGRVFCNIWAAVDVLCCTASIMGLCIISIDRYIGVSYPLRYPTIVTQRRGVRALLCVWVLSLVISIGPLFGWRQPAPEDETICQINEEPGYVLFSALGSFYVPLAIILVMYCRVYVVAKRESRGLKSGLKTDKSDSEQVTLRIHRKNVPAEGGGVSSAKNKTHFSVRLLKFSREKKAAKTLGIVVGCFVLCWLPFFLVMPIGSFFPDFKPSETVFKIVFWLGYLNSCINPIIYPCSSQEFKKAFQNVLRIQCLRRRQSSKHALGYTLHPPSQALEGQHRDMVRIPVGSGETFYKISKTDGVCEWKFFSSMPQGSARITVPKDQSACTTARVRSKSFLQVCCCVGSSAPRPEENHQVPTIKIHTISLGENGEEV
# [5] = biological target: T2, Alpha-1A adrenergic receptor; test: Ability to displace [125I]HEAT from cloned human Alpha-1A adrenergic receptor stably expressed in CHO cells; format: cell-based
# [6] = biological target: T2, Alpha-1A adrenergic receptor; test: Binding affinity against Alpha-1A adrenergic receptor in human prostatic tissue
SMILES,Ki [1],Ki [2],Ki [3],Ki [4],Ki [5],Ki [6],EC25 (Mustela putorius furo)
Cc1[nH]c2ccccc2c1CCN1CCC2(CC1)CC(=O)c1ccc(NS(C)(=O)=O)cc1O2,115 nM,8 nM,221 nM,,,,> 30000 nM
CS(=O)(=O)Nc1ccc2c(c1)OC1(CCN(CCc3ccccn3)CC1)CC2=O,3250 nM,1670 nM,> 2000 nM,,,,6600 nM
CS(=O)(=O)Nc1ccc2c(c1)C(=O)CC1(CCN(CCc3ccccn3)CC1)O2,3840 nM,> 2000 nM,> 2000 nM,,,,33 nM
c1ccc2c(c1)CCC1(CCN(CCc3cccc4ccccc34)CC1)O2,99 nM,56 nM,55 nM,,,,
Cc1noc(C)c1S(=O)(=O)Nc1ccc2c(c1)C(=O)CC1(CCN(CCc3cccc4ccccc34)CC1)O2,18 nM,,24 nM,10 nM,0.69 nM,10 nM,> 30000 nM
C1=CC2(CCN(CCc3cccc4ccccc34)CC2)Oc2ccccc21,200 nM,71 nM,53 nM,,,,
CS(=O)(=O)Nc1ccc2c(c1)OC1(CCN(CCc3cccc4ccccc34)CC1)CC2=O,136 nM,20 nM,149 nM,,,,9000 nM
COc1ccccc1CCN1CCC2(CC1)CC(=O)c1ccc(NS(C)(=O)=O)cc1O2,94 nM,6.5 nM,175 nM,,,,3800 nM
O=C1CC2(CCN(CCc3ccccn3)CC2)Oc2ccccc21,1520 nM,793 nM,1290 nM,,,,160 nM

# More lines, in order of falling Ki [1], values ahead:
Ki [1],Ki [2],Ki [3],Ki [4],Ki [5],Ki [6],SMILES,EC25 (Mustela putorius furo)
149 nM,31 nM,49 nM,,,,O=C1c2ccccc2CC12CCN(CCc1cccc3ccccc13)CC2,
67 nM,53 nM,48 nM,,,,O=C1CC2(CCN(CCc3cccc4ccccc34)CC2)Oc2ccccc21,
60 nM,45 nM,137 nM,,,,O=C1OC2(CCN(CCc3cccc4ccccc34)CC2)Cc2ccccc21,
53 nM,13 nM,24 nM,,,,O=C1CC2(CCN(CCc3cccc4ccccc34)CC2)Oc2ccc(NS(=O)(=O)Cc3ccccc3)cc21,> 30000 nM
24 nM,8 nM,53 nM,,,,Cn1cnc(S(=O)(=O)Nc2ccc3c(c2)C(=O)CC2(CCN(CCc4cccc5ccccc45)CC2)O3)c1,> 30000 nM
